Test results taken from patent publication US20210123061A1, “METHODS AND COMPOSITIONS FOR TREATING INFLAMMATORY DISEASE OR DISORDER” (THE BRIGHAM AND WOMEN'S HOSPITAL, INC., priority 2018, published 2021).

How the values were obtained:
[1] = system: activated macrophages (CD45+ CD11b+ F4/80+ CD86+ cells); assay: Mouse model of thioglycollate-elicited peritonitis, flow cytometry of peritoneal cells; assay type: in vivo, mice; conditions: 30 mg/kg intraperitoneally, twice; 24 hours after thioglycollate
Protocol: FIGS. 5A-5D show RSK activity plays a key role for pro-inflammatory activation of macrophages in peritonitis model. (FIG. 5A) Model overview—mice were injected intraperitoneally with vehicle or 30 mg/kg BI-D1870. Twenty-four hours after the injection, 4% thioglycollate as well as vehicle or 30 mg/kg BI-D1870 were injected intraperitoneally in the mice. Forty-eight hours after the first injection, peritoneal cells were harvested. (FIG. 5B) Representative results of flow cytometry. Peritoneal cells were incubated with APC-Cy7-anti-CD45, FITC-anti-F4/80, APC-anti-CD11b, and PE-Cy7-anti-CD86 followed by flow-cytometry analysis. (FIG. 5C) Ratio of CD86-positive cells in peritoneal macrophages. Data are means±SE. N=10 mice. *P<0.05 indicates significance compared to control (vehicle) by unpaired Student's test. (FIG. 5D) Cell numbers of peritoneal CD86-positive macrophages. Data are means±SE. N=10 mice. *P<0.05 indicates significance by unpaired Student's test.
Mouse peritonitis model. C57BL/6J wild type mice (12 weeks old, male) were purchased from Jackson Laboratory. We injected intraperitoneally with vehicle (30% PEG400, 0.5% Tween80, 5% Propylene glycol) or 30 mg/kg BI-D1870 (Selleck Chemicals). […]
Flow cytometry. […] After washing cells with EasySep Buffer, stained cells were analyzed by BD FACSAria II (BD Bioscience) and FlowJo software (FlowJo LLC).

[2] = system: RSK-substrates (RXXpS/T phospho-peptides); assay: Phospho-proteomics with anti-RXXpS/T enrichment in IFN-γ-stimulated macrophages; assay type: cell-based, human; conditions: BI-D1870 +IFNg, IP:RXXpS/T, DMSO = 1.00
Protocol: (FIG. 6A) Scheme of phospho-proteomics. Human PBMC-derived macrophages were treated with DMSO or BI-D1870 for two hours followed by IFN-γ stimulation for subsequent proteolysis and phospho-peptide enrichment using the anti-RXXpS/T antibody strategy. […] N=2 donors. […] The average shortest distance of the same number of randomly selected genes to disease genes was calculated for N=250 realizations in order to compare the average shortest distance value to random expectation. Empirical p-values were calculated based on 100 degree-preserved randomizations of the first neighbor networks.
Phospho-proteomics. Phospho-peptide immunoaffinity purification from cell lysates was performed as described previously (36), with minor modifications. Human PBMC-derived macrophages were pretreated with DMSO or BI-D1870 followed by IFN-γ stimulation. Cell lysates (8.0 mg) were proteolyzed (Lys-C, Wako Chemicals) using in-solution urea strategy detailed previously (34). Trifluoroacetic acid (TFA) was added to protein digests to a final concentration of 1%, precipitate was removed by centrifugation, and digests were loaded onto Sep-Pak C18 columns (Waters) equilibrated with 0.1% TFA. Columns were washed with 0.1% TFA and wash buffer (0.1% TFA, 5% acetonitrile). A peptide fraction was obtained by elution with elution buffer (0.1% TFA, 40% acetonitrile). The peptide eluate was frozen overnight and lyophilize frozen peptide solution for 2 days. Peptides were dissolved in 1.4 mL of IAP buffer (Cell signaling Technology). Insoluble matter was removed by centrifugation. […] The immobilized antibody beads were washed three times with 1 ml IAP buffer and three times with 1 ml water, all at 4° C. Peptides were eluted from beads by incubation with 55 μl of 0.15% TFA at room temperature for 10 minutes (eluate 1), followed by a wash of the beads (eluate 2) with 50 μl of 0.15% TFA. Both eluates were combined. The peptide solution was desalted using Oasis Hlb 1 cc columns (Waters), dried in a SpeedVac, resuspend with Trypsin solution, and digested overnight. After desalting using Oasis Hlb 1 cc columns, peptides were dried in a SpeedVac, and resuspend with 40 μl of 5% acetonitrile and 0.5% formic acid for subsequent analysis by liquid chromatography/mass spectrometry (LC/MS).
Each peptide sample was analyzed four times: a full scan range of 350-1800 m/z and three gas phase separation scans—350-500 m/z, 500-700 m/z, and 700-1200 m/z in order to increase phospho-peptide signals.
Phospho-proteomics and kinase assays. The MS/MS data were queried as above using a 10-ppm tolerance window in the MS1 search space, and a 0.02 Da fragment tolerance window for EThcD or HCD. Methionine oxidation, and phosphorylation of serine and threonine were set as variable modifications, and carbamidomethylation of cysteine residues was set as fixed modifications. High confidently assigned phospho-peptides were used for precursor ion area under the curve (AUC) quantification. The peptides that were detected in IgG conditions were considered as non-specific signals and excluded. The normalized precursor ion intensities were exported from PD2.1.

With CC(C)CCN1c2nc(Nc3cc(F)c(O)c(F)c3)ncc2N(C)C(=O)C1C (centres unmarked) [BI-D1870] the “accumulation of activated macrophages in peritoneal cavity” value [1] was “suppressed”, the “ratio of activated macrophages to total macrophages” value [1] was “suppressed” and the “Intensity of phospho-peptide SLC20A1 S335 [R].ERLPSVDLK.[E]” value ([2]; DMSO +IFNg = 1.51) was 0.51. For the same molecule, the “Intensity of phospho-peptide LUC7L3 T238 [R].KRTEEPDRDER.[L]” value ([2]; DMSO +IFNg = 1.55) was 1.03, the “Intensity of phospho-peptide STX7 S129 [R].ASSRVSGSFPEDSSK.[E]” value ([2]; DMSO +IFNg = 1.60) was 0.67 and the “Intensity of phospho-peptide AP1AR T228 [R].SKTEEDILR.[A]” value ([2]; DMSO +IFNg = 1.67) was 0.80. The “Intensity of phospho-peptide AKAP13 T2471 [R].RAETFGGFDSHQMNASK.[G]” value ([2]; DMSO +IFNg = 1.68) was 0.73, the “Intensity of phospho-peptide CLASP1 S646 [R].RQSSGSATNVASTPDNR.[G]” value ([2]; DMSO +IFNg = 1.75) was 0.94 and the “Intensity of phospho-peptide TRPM7 S1504 [R].RPSTEDTHEVDSK.[A]” value ([2]; DMSO +IFNg = 1.75) was 0.73. The “Intensity of phospho-peptide SLC4A7 S407 [R].ENSTVDFSK.[VEG]” value ([2]; DMSO +IFNg = 1.79) was 1.61, the “Intensity of phospho-peptide IFNGR1 T295 [R].SATLETKPESK.[Y]” value ([2]; DMSO +IFNg = 1.83) was 0.77 and the “Intensity of phospho-peptide RPS6 S235 [K].RRRLSSLRASTSK.[S]” value ([2]; DMSO +IFNg = 1.86) was 0.74. For the same molecule, the “Intensity of phospho-peptide REPS1 S650 [R].LKSEDELRPEVDEHTQK.[T]” value ([2]; DMSO +IFNg = 1.91) was 0.94, the “Intensity of phospho-peptide REPS1 S650 [R].RLKSEDELRPEVDEHTQK.[T]” value ([2]; DMSO +IFNg = 1.96) was 1.09 and the “Intensity of phospho-peptide GPBP1 S49 [R].HNSSDGFDSAIGRPNGGNFGR.[K]” value ([2]; DMSO +IFNg = 2.05) was 0.45. The “Intensity of phospho-peptide MYO1E T935 [R].RNTTQNTGYSSGTQNANYPVR.[A]” value ([2]; DMSO +IFNg = 2.15) was 0.88, the “Intensity of phospho-peptide CHP1 T7 [R].ASTLLRDEELEEIKK.[E]” value ([2]; DMSO +IFNg = 2.18) was 1.00 and the “Intensity of phospho-peptide NDRG3 S338 [R].THSTSSSLGSGESPFSR.[S]” value ([2]; DMSO +IFNg = 2.25) was 1.07. For the same molecule, the “Intensity of phospho-peptide GPBP1 S49 [R].RHNSSDGFDSAIGRPNGGNFGR.[K]” value ([2]; DMSO +IFNg = 2.28) was 1.00, the “Intensity of phospho-peptide NDRG1 S330 [R].TASGSSVTSLDGTR.[S]” value ([2]; DMSO +IFNg = 2.29) was 1.88 and the “Intensity of phospho-peptide STK11IP S398 [R].RASISEPSDTDPEPR.[T]” value ([2]; DMSO +IFNg = 2.31) was 0.58. For the same molecule, the “Intensity of phospho-peptide EIF4B S422 [R].TGSESSQTGTSTTSSR.[SN]” value ([2]; DMSO +IFNg = 2.58) was 1.29, the “Intensity of phospho-peptide SPECC1L T838 [R].RSSTSSEPTPTVK.[T]” value ([2]; DMSO +IFNg = 2.80) was 1.80 and the “Intensity of phospho-peptide AKT1S1 T266 [R].LNTSDFQK.[L]” value ([2]; DMSO +IFNg = 3.11) was 0.89. The “Intensity of phospho-peptide RPS6 S235; S236 [R].RLSSLRASTSK.[S]” value ([2]; DMSO +IFNg = 3.46) was 1.65 and the “Intensity of phospho-peptide FLNA S2152 [R].RAPSVANVGSHCDLSLK.[I]” value ([2]; DMSO +IFNg = 3.67) was 1.32.
